According to US8802597B2, “Herbicidal pyrimidines” (E I du Pont de Nemours and Company, priority 2003, dated 2014):
Read-outs that look alike come from different tables or passages of the source.

Assays:
Assay in all cases: Test C pre/postemergence
Assay type in all cases: in vivo
[1] = test system: velvetleaf (Abutilon theophrasti); conditions: Abutilon theophrasti; for pest or weed control at 125 g/ha: 125 g ai/ha; for pest or weed control at 250 g/ha: 250 g ai/ha
In short: (§1)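 We sprayed seeded pots preemergence and 2–18 cm seedlings postemergence with test chemicals in a non-phytotoxic solvent mixture including surfactant. Greenhouse plants were visually compared with untreated controls at 12 to 14 days and scored 0 (no effect) to 100 (complete control).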

[2] = test system: giant foxtail (Setaria faberii); conditions: Setaria faberi; for pest or weed control at 125 g/ha: 125 g ai/ha; for pest or weed control at 31 g/ha: 31 g ai/ha; for pest or weed control at 62 g/ha: 62 g ai/ha; for pest or weed control at 250 g/ha: 250 g ai/ha
In short: as §1

[3] = test system: pigweed (Amaranthus retroflexus); conditions: Amaranthus retroflexus; for pest or weed control at 31 g/ha: 31 g ai/ha; for pest or weed control at 62 g/ha: 62 g ai/ha; for pest or weed control at 125 g/ha: 125 g ai/ha; for pest or weed control at 250 g/ha: 250 g ai/ha
In short: as §1

[4] = test system: morningglory (Ipomoea coccinea); conditions: Ipomoea; for pest or weed control at 31 g/ha: 31 g ai/ha; for pest or weed control at 62 g/ha: 62 g ai/ha; for pest or weed control at 125 g/ha: 125 g ai/ha; for pest or weed control at 250 g/ha: 250 g ai/ha
In short: as §1

kochia (Kochia scoparia) = conditions: Bassia scoparia; for pest or weed control at 31 g/ha: 31 g ai/ha; for pest or weed control at 62 g/ha: 62 g ai/ha; for pest or weed control at 125 g/ha: 125 g ai/ha; for pest or weed control at 250 g/ha: 250 g ai/ha
In short: as §1

[5] = test system: johnsongrass (Sorghum halepense); conditions: Sorghum halepense; for pest or weed control at 31 g/ha: 31 g ai/ha; for pest or weed control at 62 g/ha: 62 g ai/ha; for pest or weed control at 125 g/ha: 125 g ai/ha; for pest or weed control at 250 g/ha: 250 g ai/ha
In short: as §1

[6] = pre-emergence, Preemergence, scale 0 to 100, read-out: Plant response rating, Velvetleaf
[7] = post-emergence, Postemergence, scale 0 to 100 (0 no effect, 100 complete control), read-out: Foxtail, Giant plant response rating
[8] = pre-emergence, Preemergence, scale 0 to 100, 0 no effect, 100 complete control, read-out: Plant response rating, Foxtail, Giant
[9] = pre-emergence, Preemergence, scale 0 to 100, read-out: Plant response rating, Foxtail, Giant
[10] = post-emergence, Postemergence, scale 0 to 100 (0 no effect, 100 complete control), read-out: Pigweed plant response rating
[11] = pre-emergence, Preemergence, scale 0 to 100, 0 no effect, 100 complete control, read-out: Plant response rating, Pigweed
[12] = pre-emergence, Preemergence, scale 0 to 100, read-out: Plant response rating, Pigweed
[13] = post-emergence, Postemergence, scale 0 to 100 (0 no effect, 100 complete control), read-out: Morningglory plant response rating
[14] = pre-emergence, Preemergence, scale 0 to 100, 0 no effect, 100 complete control, read-out: Plant response rating, Morningglory
[15] = pre-emergence, Preemergence, scale 0 to 100, read-out: Plant response rating, Morningglory
[16] = post-emergence, Postemergence, scale 0 to 100 (0 no effect, 100 complete control), read-out: Kochia plant response rating
[17] = pre-emergence, Preemergence, scale 0 to 100, 0 no effect, 100 complete control, read-out: Plant response rating, Kochia
[18] = pre-emergence, Preemergence, scale 0 to 100, read-out: Plant response rating, Kochia
[19] = post-emergence, Postemergence, scale 0 to 100 (0 no effect, 100 complete control), read-out: Johnsongrass plant response rating
[20] = pre-emergence, Preemergence, scale 0 to 100, 0 no effect, 100 complete control, read-out: Plant response rating, Johnsongrass
[21] = pre-emergence, Preemergence, scale 0 to 100, read-out: Plant response rating, Johnsongrass

## COC(=O)c1nc(C(C)C)nc(N)c1Br [Compound 3]
[1]; post-emergence, Postemergence, scale 0 to 100 (0 no effect, 100 complete control), read-out: Velvetleaf plant response rating
  pest or weed control at 125 g/ha: 55%
[1]; post-emergence, Postemergence, scale 0 to 100, read-out: Plant response rating, Velvetleaf
  pest or weed control at 250 g/ha: 70%
[1]; pre-emergence, Preemergence, 31 g ai/ha, scale 0 to 100, 0 no effect, 100 complete control, read-out: Plant response rating, Velvetleaf
  pest or weed control at 31 g/ha: 0%
[1]; pre-emergence, Preemergence, 62 g ai/ha, scale 0 to 100, 0 no effect, 100 complete control, read-out: Plant response rating, Velvetleaf
  pest or weed control at 62 g/ha: 0%
[1]; [6]
  pest or weed control at 125 g/ha: 20%
  pest or weed control at 250 g/ha: 35%
[2]; [7]
  pest or weed control at 125 g/ha: 0%
  pest or weed control at 62 g/ha: 0%
[2]; post-emergence, Postemergence, read-out: Plant response rating (scale of 0 to 100), Foxtail, Giant
  pest or weed control at 31 g/ha: 0%
[2]; post-emergence, Postemergence, scale 0 to 100, read-out: Plant response rating, Foxtail, Giant
  pest or weed control at 250 g/ha: 0%
[2]; [8]
  pest or weed control at 31 g/ha: 0%
  pest or weed control at 62 g/ha: 0%
[2]; [9]
  pest or weed control at 125 g/ha: 0%
  pest or weed control at 250 g/ha: 0%
[3]; post-emergence, Postemergence, read-out: Plant response rating (scale of 0 to 100), Pigweed
  pest or weed control at 31 g/ha: 60%
[3]; [10]
  pest or weed control at 62 g/ha: 65%
  pest or weed control at 125 g/ha: 75%
[3]; post-emergence, Postemergence, scale 0 to 100, read-out: Plant response rating, Pigweed
  pest or weed control at 250 g/ha: 80%
[3]; [11]
  pest or weed control at 31 g/ha: 20%
  pest or weed control at 62 g/ha: 50%
[3]; [12]
  pest or weed control at 125 g/ha: 65%
  pest or weed control at 250 g/ha: 80%
[4]; post-emergence, Postemergence, read-out: Plant response rating (scale of 0 to 100), Morningglory
  pest or weed control at 31 g/ha: 45%
[4]; [13]
  pest or weed control at 62 g/ha: 60%
  pest or weed control at 125 g/ha: 65%
[4]; post-emergence, Postemergence, scale 0 to 100, read-out: Plant response rating, Morningglory
  pest or weed control at 250 g/ha: 75%
[4]; [14]
  pest or weed control at 31 g/ha: 0%
  pest or weed control at 62 g/ha: 0%
[4]; [15]
  pest or weed control at 125 g/ha: 20%
  pest or weed control at 250 g/ha: 35%
Kochia (Kochia scoparia); post-emergence, Postemergence, read-out: Plant response rating (scale of 0 to 100), Kochia
  pest or weed control at 31 g/ha: 20%
Kochia (Kochia scoparia); [16]
  pest or weed control at 62 g/ha: 65%
  pest or weed control at 125 g/ha: 90%
Kochia (Kochia scoparia); post-emergence, Postemergence, scale 0 to 100, read-out: Plant response rating, Kochia
  pest or weed control at 250 g/ha: 100%
Kochia (Kochia scoparia); [17]
  pest or weed control at 31 g/ha: 0%
  pest or weed control at 62 g/ha: 0%
Kochia (Kochia scoparia); [18]
  pest or weed control at 125 g/ha: 20%
  pest or weed control at 250 g/ha: 30%
[5]; post-emergence, Postemergence, read-out: Plant response rating (scale of 0 to 100), Johnsongrass
  pest or weed control at 31 g/ha: 0%
[5]; [19]
  pest or weed control at 62 g/ha: 0%
  pest or weed control at 125 g/ha: 0%
[5]; post-emergence, Postemergence, scale 0 to 100, read-out: Plant response rating, Johnsongrass
  pest or weed control at 250 g/ha: 0%
[5]; [20]
  pest or weed control at 31 g/ha: 0%
  pest or weed control at 62 g/ha: 0%
[5]; [21]
  pest or weed control at 125 g/ha: 0%
  pest or weed control at 250 g/ha: 0%
